# From US20170119020A1, “METHOD OF FEEDING AN ANIMAL” (CARGILL, INCORPORATED, priority 2014, published 2017)
# How the values were obtained:
# Ross 308 breeders = test: Broiler breeder performance, weeks 30 through 39 of age (Example 4); format: in vivo, chicken; conditions: breeder diet
# Excerpt: All breeders received the same standard control diet during the pre-experimental period (19-30 weeks of age). […] In total there were 24 floor pens with 30 breeder females and 3 males (after allocation). The experimental period lasted 9 weeks; the breeders received a lay phase diet during the entire experimental period. Feed and water were restricted. Feed amount depended on body weight development. Water was provided for two hours a day, crops were checked regularly to ensure the correct amount of water was provided. [table]
# Ross 308 embryos = test: Embryonic mortality, hatchability and chick quality at hatch (Example 5); format: in vivo, chicken; conditions: for Chick length / Chick weight average / Chick weight dissected chicks / Liver weight / Relative asymmetry / YFBM (yolk free body mass) / Yolk weight: at hatch; for Chick length / Chick weight average / Chick weight dissected chicks / Liver weight / Relative asymmetry / YFBM (yolk free body mass) / Yolk weight / Egg weight EQ / Relative liver weight / Relative yolk weight / Relative chick weight: breeder diet; for Relative liver weight / Relative yolk weight: percentage of chick weight; for Relative chick weight: percentage of egg weight at EO; for Early Embryonic Mortality: E0-E7; for Mid Embryonic Mortality: E8-E18; for Late Embryonic Mortality: E19-E21
# Description: For a period of six days, eggs were collected from the broiler breeder flock of Example 4 above. The eggs were stored based on breeder pen and storage day for an additional three days before the brooding period started. All eggs were incubated until hatch. All eggs were distributed over 24 trays and 6 blocks, with each block representing a storage day.
# A total of 2160 eggs derived from the 37-38 week broiler breeders (Ross 308) of Example 4 were collected and stored in the egg storage unit of the broiler breeder facility. At the start of the incubation period, the eggs were weighed and allocated into blocks, each block representing a storage day. Each block consisted of 24 experimental units, with each experimental unit indicating a group of 15 eggs. Only intact eggs were included and eggs that were cracked, dirty or that had deformed shells were excluded from the trial.
# The eggs were placed in a Nature Form NMC 2340 Incubator with automatic control of temperature and relative humidity. From E0 till E18 the eggs were placed in setter trolleys, which consist of two shelves with a capacity for 13 trays each. Each tray has three flats of 30 eggs each. During this period, the incubator start temperature was set at 37.5° C. and relative humidity at 54%.
# After the setter period (E0-E18), eggs were transferred to baskets in the hatchers based on the blocking and tray structure in the setter. The eggs were placed into subdivisions of a hatching crate (per experimental unit of 15 eggs), and following tray order per block (starting with 1AO ending with 24CI). Each hatcher trolley has twelve baskets with a capacity for 180 eggs each. Eggs of tray 1-12 were placed in incubator machine 1, eggs of tray 13-24 were placed in incubator machine 2. During this period, the incubator temperature was set at 36.7° C. and relative humidity at 70%.
# Group egg weights were recorded at E0. At E7 and E18, all eggs were candled and empty eggs or eggs containing dead embryos were removed (early dead E0-E7, mid dead E8-E18). At E18 eggs were transferred to the hatching baskets after candling. At hatch (E21) the number of dead chickens, late dead embryos (E19-E21) and pipped eggs were recorded. The number of hatched chickens was recorded per replicate, as well as average chick weight. […] Sex was determined by feather sexing, female chickens were euthanized by CO2 and disposed according to local regulations. Per experimental unit, five male chickens were selected for the grow-out period and allocated to broiler grower pens. Only chickens with an average body weight, completely dry, showing active movement and with a good navel score were selected. After this selection one male chicken per experimental unit was selected for dissection. Sample chickens were individually weighed and killed by cervical dislocation to measure remaining yolk-sac weights, yolk-free body mass (“YFBM”), liver weight, chick length, and shank length of both shanks. The livers were immediately placed on dry ice and after dissection stored at −20° C. for further analysis (“SOD and GSSG”). Relative asymmetry was calculated according to the following formula:
# RA=(|L−R|/[(L+R)/2])×100.
compound,measurement,setting,value
"Cc1c(C)c2c(c(C)c1O)CCC(C)(CCCC(C)CCCC(C)CCCC(C)C)O2 (racemic) [Vitamin E, DL-α-tocopherol]",Average daily gain 30-34 wk,Ross 308 breeders; vitamin E equivalence 80 ppm,5.36 g
same,Average daily gain 30-39 wk,Ross 308 breeders; vitamin E equivalence 80 ppm,5.79 g
same,Average daily gain 34-39 wk,Ross 308 breeders; vitamin E equivalence 80 ppm,5.96 g
same,Bodyweight 30 wks,Ross 308 breeders; vitamin E equivalence 80 ppm,3.51 kg
same,Bodyweight 39 wks,Ross 308 breeders; vitamin E equivalence 80 ppm,3.88 kg
same,Egg mass 30-34 wks,Ross 308 breeders; vitamin E equivalence 80 ppm,52.4 g/h/d
same,Egg mass 30-39 wks,Ross 308 breeders; vitamin E equivalence 80 ppm,51.6 g/h/d
same,Egg mass 34-39 wks,Ross 308 breeders; vitamin E equivalence 80 ppm,50.9 g/h/d
same,Egg weight 30-34 wks,Ross 308 breeders; vitamin E equivalence 80 ppm,60.1 g
same,Egg weight 30-39 wks,Ross 308 breeders; vitamin E equivalence 80 ppm,61.2 g
same,Egg weight 34-39 wks,Ross 308 breeders; vitamin E equivalence 80 ppm,62.4 g
same,First Class Eggs 30-34 wks,Ross 308 breeders; vitamin E equivalence 80 ppm,80.2%
same,First Class Eggs 30-39 wks,Ross 308 breeders; vitamin E equivalence 80 ppm,77.0%
same,First Class Eggs 34-39 wks,Ross 308 breeders; vitamin E equivalence 80 ppm,73.8%
same,Laying in percentage 30-34 wks,Ross 308 breeders; vitamin E equivalence 80 ppm,87.1%
same,Laying in percentage 30-39 wks,Ross 308 breeders; vitamin E equivalence 80 ppm,84.3%
same,Laying in percentage 34-39 wks,Ross 308 breeders; vitamin E equivalence 80 ppm,81.5%
same,Second Choice Eggs: Broken Eggs 30-34 wks,Ross 308 breeders; vitamin E equivalence 80 ppm,1.2%
same,Second Choice Eggs: Broken Eggs 30-39 wks,Ross 308 breeders; vitamin E equivalence 80 ppm,1.2%
same,Second Choice Eggs: Broken Eggs 34-39 wks,Ross 308 breeders; vitamin E equivalence 80 ppm,1.2%
same,Second Choice Eggs: Dirty Eggs 30-34 wks,Ross 308 breeders; vitamin E equivalence 80 ppm,1.4%
same,Second Choice Eggs: Dirty Eggs 30-39 wks,Ross 308 breeders; vitamin E equivalence 80 ppm,1.7%
same,Second Choice Eggs: Dirty Eggs 34-39 wks,Ross 308 breeders; vitamin E equivalence 80 ppm,1.9%
same,Second Choice Eggs: Double yolk Eggs 30-34 wks,Ross 308 breeders; vitamin E equivalence 80 ppm,1.3%
same,Second Choice Eggs: Double yolk Eggs 30-39 wks,Ross 308 breeders; vitamin E equivalence 80 ppm,0.9%
same,Second Choice Eggs: Double yolk Eggs 34-39 wks,Ross 308 breeders; vitamin E equivalence 80 ppm,0.4%
same,"Second Choice Eggs: Floor eggs, 30-34 wks",Ross 308 breeders; vitamin E equivalence 80 ppm,2.3%
same,"Second Choice Eggs: Floor eggs, 30-39 wks",Ross 308 breeders; vitamin E equivalence 80 ppm,2.8%
same,"Second Choice Eggs: Floor eggs, 34-39 wks",Ross 308 breeders; vitamin E equivalence 80 ppm,3.4%
same,Second Choice Eggs: Remainder 30-34 wks,Ross 308 breeders; vitamin E equivalence 80 ppm,0.5%
same,Second Choice Eggs: Remainder 30-39 wks,Ross 308 breeders; vitamin E equivalence 80 ppm,0.6%
same,Second Choice Eggs: Remainder 34-39 wks,Ross 308 breeders; vitamin E equivalence 80 ppm,0.8%
same,Second Choice Eggs: Shell less Eggs 30-34 wks,Ross 308 breeders; vitamin E equivalence 80 ppm,0.2%
same,Second Choice Eggs: Shell less Eggs 30-39 wks,Ross 308 breeders; vitamin E equivalence 80 ppm,0.1%
same,Second Choice Eggs: Shell less Eggs 34-39 wks,Ross 308 breeders; vitamin E equivalence 80 ppm,0.0%
same,Average daily gain 30-34 wk,Ross 308 breeders; vitamin E equivalence 160 ppm,5.65 g
same,Average daily gain 30-39 wk,Ross 308 breeders; vitamin E equivalence 160 ppm,5.60 g
same,Average daily gain 34-39 wk,Ross 308 breeders; vitamin E equivalence 160 ppm,5.40 g
same,Bodyweight 30 wks,Ross 308 breeders; vitamin E equivalence 160 ppm,3.48 kg
same,Bodyweight 39 wks,Ross 308 breeders; vitamin E equivalence 160 ppm,3.83 kg
same,Egg mass 30-34 wks,Ross 308 breeders; vitamin E equivalence 160 ppm,52.5 g/h/d
same,Egg mass 30-39 wks,Ross 308 breeders; vitamin E equivalence 160 ppm,52.4 g/h/d
same,Egg mass 34-39 wks,Ross 308 breeders; vitamin E equivalence 160 ppm,52.2 g/h/d
same,Egg weight 30-34 wks,Ross 308 breeders; vitamin E equivalence 160 ppm,60.3 g
same,Egg weight 30-39 wks,Ross 308 breeders; vitamin E equivalence 160 ppm,61.6 g
same,Egg weight 34-39 wks,Ross 308 breeders; vitamin E equivalence 160 ppm,62.9 g
same,First Class Eggs 30-34 wks,Ross 308 breeders; vitamin E equivalence 160 ppm,78.6%
same,First Class Eggs 30-39 wks,Ross 308 breeders; vitamin E equivalence 160 ppm,76.5%
same,First Class Eggs 34-39 wks,Ross 308 breeders; vitamin E equivalence 160 ppm,74.4%
same,Laying in percentage 30-34 wks,Ross 308 breeders; vitamin E equivalence 160 ppm,87.0%
same,Laying in percentage 30-39 wks,Ross 308 breeders; vitamin E equivalence 160 ppm,85.0%
same,Laying in percentage 34-39 wks,Ross 308 breeders; vitamin E equivalence 160 ppm,83.0%
same,Second Choice Eggs: Broken Eggs 30-34 wks,Ross 308 breeders; vitamin E equivalence 160 ppm,1.2%
same,Second Choice Eggs: Broken Eggs 30-39 wks,Ross 308 breeders; vitamin E equivalence 160 ppm,1.3%
same,Second Choice Eggs: Broken Eggs 34-39 wks,Ross 308 breeders; vitamin E equivalence 160 ppm,1.5%
same,Second Choice Eggs: Dirty Eggs 30-34 wks,Ross 308 breeders; vitamin E equivalence 160 ppm,1.8%
same,Second Choice Eggs: Dirty Eggs 30-39 wks,Ross 308 breeders; vitamin E equivalence 160 ppm,1.8%
same,Second Choice Eggs: Dirty Eggs 34-39 wks,Ross 308 breeders; vitamin E equivalence 160 ppm,1.7%
same,Second Choice Eggs: Double yolk Eggs 30-34 wks,Ross 308 breeders; vitamin E equivalence 160 ppm,1.1%
same,Second Choice Eggs: Double yolk Eggs 30-39 wks,Ross 308 breeders; vitamin E equivalence 160 ppm,0.8%
same,Second Choice Eggs: Double yolk Eggs 34-39 wks,Ross 308 breeders; vitamin E equivalence 160 ppm,0.5%
same,"Second Choice Eggs: Floor eggs, 30-34 wks",Ross 308 breeders; vitamin E equivalence 160 ppm,3.3%
same,"Second Choice Eggs: Floor eggs, 30-39 wks",Ross 308 breeders; vitamin E equivalence 160 ppm,3.7%
same,"Second Choice Eggs: Floor eggs, 34-39 wks",Ross 308 breeders; vitamin E equivalence 160 ppm,4.1%
same,Second Choice Eggs: Remainder 30-34 wks,Ross 308 breeders; vitamin E equivalence 160 ppm,0.8%
same,Second Choice Eggs: Remainder 30-39 wks,Ross 308 breeders; vitamin E equivalence 160 ppm,0.7%
same,Second Choice Eggs: Remainder 34-39 wks,Ross 308 breeders; vitamin E equivalence 160 ppm,0.6%
same,Second Choice Eggs: Shell less Eggs 30-34 wks,Ross 308 breeders; vitamin E equivalence 160 ppm,0.3%
same,Second Choice Eggs: Shell less Eggs 30-39 wks,Ross 308 breeders; vitamin E equivalence 160 ppm,0.2%
same,Second Choice Eggs: Shell less Eggs 34-39 wks,Ross 308 breeders; vitamin E equivalence 160 ppm,0.2%
same,Chick length,Ross 308 embryos; vitamin E equivalence 80 ppm,18.3 cm
same,Chick weight average,Ross 308 embryos; vitamin E equivalence 80 ppm,43.8 g
same,Chick weight dissected chicks,Ross 308 embryos; vitamin E equivalence 80 ppm,42.8 g
same,Liver weight,Ross 308 embryos; vitamin E equivalence 80 ppm,1.2 g
same,Relative asymmetry,Ross 308 embryos; vitamin E equivalence 80 ppm,2.4%
same,YFBM (yolk free body mass),Ross 308 embryos; vitamin E equivalence 80 ppm,39.6 g
same,Yolk weight,Ross 308 embryos; vitamin E equivalence 80 ppm,4.2 g
same,Chick length,Ross 308 embryos; vitamin E equivalence 160 ppm,18.4 cm
same,Chick weight average,Ross 308 embryos; vitamin E equivalence 160 ppm,43.7 g
same,Chick weight dissected chicks,Ross 308 embryos; vitamin E equivalence 160 ppm,43.6 g
same,Liver weight,Ross 308 embryos; vitamin E equivalence 160 ppm,1.2 g
same,Relative asymmetry,Ross 308 embryos; vitamin E equivalence 160 ppm,2.3%
same,YFBM (yolk free body mass),Ross 308 embryos; vitamin E equivalence 160 ppm,40.6 g
same,Yolk weight,Ross 308 embryos; vitamin E equivalence 160 ppm,4.2 g
same,Egg weight EQ,Ross 308 embryos; vitamin E equivalence 80 ppm,62.9 g
same,Egg weight EQ,Ross 308 embryos; vitamin E equivalence 160 ppm,63.0 g
same,Relative liver weight,Ross 308 embryos; vitamin E equivalence 80 ppm,2.8%
same,Relative yolk weight,Ross 308 embryos; vitamin E equivalence 80 ppm,9.7%
same,Relative liver weight,Ross 308 embryos; vitamin E equivalence 160 ppm,2.7%
same,Relative yolk weight,Ross 308 embryos; vitamin E equivalence 160 ppm,9.4%
same,Relative chick weight,Ross 308 embryos; vitamin E equivalence 80 ppm,69.7%
same,Relative chick weight,Ross 308 embryos; vitamin E equivalence 160 ppm,69.4%
same,Empty eggs,Ross 308 embryos; vitamin E equivalence 80 ppm,1.2%
same,Hatchability of fertile,Ross 308 embryos; vitamin E equivalence 80 ppm,91.8%
same,Hatchability of total,Ross 308 embryos; vitamin E equivalence 80 ppm,90.6%
same,Total Embryonic Mortality,Ross 308 embryos; vitamin E equivalence 80 ppm,7.7%
same,Early Embryonic Mortality,Ross 308 embryos; vitamin E equivalence 80 ppm,4.0%
same,Mid Embryonic Mortality,Ross 308 embryos; vitamin E equivalence 80 ppm,1.6%
same,Late Embryonic Mortality,Ross 308 embryos; vitamin E equivalence 80 ppm,2.7%
same,Empty eggs,Ross 308 embryos; vitamin E equivalence 160 ppm,0.0%
same,Hatchability of fertile,Ross 308 embryos; vitamin E equivalence 160 ppm,90.2%
same,Hatchability of total,Ross 308 embryos; vitamin E equivalence 160 ppm,90.2%
same,Total Embryonic Mortality,Ross 308 embryos; vitamin E equivalence 160 ppm,8.6%
same,Early Embryonic Mortality,Ross 308 embryos; vitamin E equivalence 160 ppm,6.6%
same,Mid Embryonic Mortality,Ross 308 embryos; vitamin E equivalence 160 ppm,0.5%
same,Late Embryonic Mortality,Ross 308 embryos; vitamin E equivalence 160 ppm,1.8%
